From US8853353B2, “Membrane type-1 matrix metalloprotein inhibitors and uses thereof” (Angiochem, Inc., priority 2008, dated 2014)

How the values were obtained:
[1] = system: prostate adinocarcinoma cells (PC-3); conditions: prostate cancer cells, 3D collagen gel
Description: (§1) Different tumor cell lines were incubated with the peptides and grown atop of a collagen film (2D) or within a collagen gel (3D).

[2] = system: medulloblastoma cells (DAOY); conditions: 3D collagen gel
Description: as §1

[3] = system: glioblastoma cells (U-87); conditions: 3D collagen gel
Description: as §1

[4] = system: osteosarcoma cells (MG-63); conditions: bone cancer cells, 3D collagen gel
Description: as §1

tumor cell lines = conditions: grown atop of a collagen film (2D)
Description: as §1

[5] = system: fibrosarcoma cells (HT-1080); conditions: 3D collagen gel
Description: as §1

[6] = system: breast adenocarcinoma cells (MDA-MB-231); conditions: breast cancer cells, 3D collagen gel
Description: as §1

[7] = system: GST-MT1-MMP cytoplasmic tail fusion protein (GST-MT); conditions: recombinant Src kinase, ATP, western blot
Description: The GST-MT1-MMP cytoplasmic tail fusion protein (GST-MT) was incubated with recombinant Src kinase in the presence of ATP and the phosphorylation products were analyzed by western blotting.

[8] = system: Fibrosarcoma cells implanted subcutaneously; conditions: 10 mg/kg daily subcutaneous
Description: Fibrosarcoma cells were implanted subcutaneously into the flank of athymic nude mice. […] Mice were given daily subcutaneous administrations of 10 mg/kg of peptides or vehicle.

| Substance | inhibition of 3D proliferation [1] | reduction of proliferation in 3D matrix [2] | reduction of proliferation in 3D matrix [3] | inhibition of 3D proliferation [4] | effect on tumor cell proliferation in 2D conditions (tumor cell lines) | inhibition of 3D proliferation [5] | inhibition of 3D proliferation [6] | inhibition of Src-mediated tyrosine phosphorylation of GST-MT [7] | tumors completely regressed and totally disappeared [8] [%] | reduction of tumor growth ([8]; 26 days post-implantation) [%] |
| --- | --- | --- | --- | --- | --- | --- | --- | --- | --- | --- |
| Biotin-Ahx-RQIKIWFQNRRMKWKK-RRHGTPRRLLFCQRSLLDKV [ACM-14] | inhibits | 35% | 50% | inhibits | does not affect | inhibits | inhibits | completely inhibited | 17 | 70 |
| Biotin-Ahx-RQIKIWFQNRRMKWKK-TLRQRRCLPHFDSGLRKVRL [scACM-14, reference compound] | – | no effect | no effect | – | – | – | – | not observed | – | – |
